The structures appear in SMILES notation. Values after ≈ are worked out from the molar mass of the structure shown.

Test [1] relates to Mycobacterium tuberculosis S7. As to the kind of experiment: microbe, parasite or virus in culture. As to conditions: S7, 120 h, read-out: MIC99 (S7) µM.
Test [2] relates to Mycobacterium tuberculosis S6. As to the kind of experiment: microbe, parasite or virus in culture. Particulars: S6, 120 h, read-out: MIC99 (S6) µM.

With `CC(N)c1ncnn1C` (stereo not shown) [SF1], the MIC99 in test [1] worked out at 250 µM (≈ 31.5 µg/mL). `CC(C)C(N)c1ncnn1C` (stereo not shown) [SF2]: the MIC99 in test [2] and in test [1] was 125 µM (≈ 19.3 µg/mL) throughout.

`NCCSc1ncn[nH]1` [SF3]: the MIC99 in test [1] came to 250 µM (≈ 36.1 µg/mL).
